Assay results published in patent US20220333108A1, “COMBINATIONS OF SIRNAS WITH SIRNAS AGAINST SULF2 OR GPC3 FOR USE IN TREATING CANCER” (Sirnaomics, Inc., priority 2021, published 2022).

Test system: HepG2 cells
Test: Sulf2 silencing and Sorafenib in liver cancer cell model
Format: cell-based
Details: Homo sapiens, Sorafenib exposure 72 h, read-out: IC50 in inhibiting tumor growth (Sorafenib)
Description: The effect of Sulf2 silencing in combination with Sorafenib in a liver cancer cell model (HepG2 cells) was studied. HepG2 cells incubated with various concentrations of SULF2_1 siRNA for 96 h, and Sorafenib (404) was added after 24 h to allow exposure for 72 h.

## CNC(=O)c1cc(Oc2ccc(NC(=O)Nc3ccc(Cl)c(C(F)(F)F)c3)cc2)ccn1 [Sorafenib, sorafenib]
  IC50: ~4 µM
